In US10799478B2, “Treatment of androgen deprivation therapy associated symptoms” (priority 2014, dated 2020):

Columns and labels:
in vivo = settings: both, Sprague-Dawley, rat, in vivo, po
Experimental: (§1) Vehicle controls (15 rats/sex in main study and 5 rats/sex in recovery study) are given daily oral gavage dose of 5% Vitamin E TPGS, 1% hydroxyethylcellulose, 0.05% Dow Corning Antifoam 1510-US in purified water. Fifteen males and 15 females are assigned to each treatment main study group. Five males and 5 females are assigned to the recovery study for the vehicle control and 150 mg/kg/day groups. […] All administrations are given in a 15 mL/kg volume.

Sprague-Dawley rat = test: in vivo; settings: for Male group mean AUC0-24 hr near termination / Prostate weight (mean % decrease): rats, 6 months
Experimental: as §1

Orx rats = test: Orchidectomized Rat Assay; format: in vivo; settings: for SV Weight, % Sham: once daily 2 months
male rats = test: Male Fertility and Toxicokinetic Study in Rats; format: in vivo, rat
Experimental: The purpose of this study is to determine the potential adverse effects in the reproductive process resulting from treatment of male rats prior to, and during, the mating period. This includes identification of functional reproductive effects in the male.
Male rats (20/group) are treated daily for 10 weeks prior to mating, throughout the 3-week mating period, and continuing through the day prior to euthanasia (for a total of 100 to 101 doses). Female rats are not treated. All animals are observed twice daily for moribundity and mortality. Clinical observations are recorded daily for male rats; body weights and food consumption are recorded for males twice weekly. All males are euthanized 1 day following the last dose administration. Spermatogenic endpoint evaluations conducted on all males include motility and morphology and epididymal sperm concentration. Testes, epididymis, prostate and seminal vesicle/coagulating gland/fluid from all males are weighed and retained. Testes, epididymis, prostate, seminal vesicles and coagulating glands from surviving males are examined microscopically. A laparohysterectomy is performed on Gestation Day 15 for each female with evidence of mating. An additional 3, 18, 18, and 18 males assigned to the toxicokinetic phase are given the compound at doses of 0, 3, 30, and 1000 mg/kg, respectively, and are sampled for toxicokinetic evaluation at appropriate intervals following dose administration on Study Days 0 and 70.

human Androgen receptor = target: T1, human Androgen receptor (Homo sapiens, UniProt P10275); test: hAR binding affinity (Ki); settings: comparison with R1881
T1 sequence (P10275 1-920): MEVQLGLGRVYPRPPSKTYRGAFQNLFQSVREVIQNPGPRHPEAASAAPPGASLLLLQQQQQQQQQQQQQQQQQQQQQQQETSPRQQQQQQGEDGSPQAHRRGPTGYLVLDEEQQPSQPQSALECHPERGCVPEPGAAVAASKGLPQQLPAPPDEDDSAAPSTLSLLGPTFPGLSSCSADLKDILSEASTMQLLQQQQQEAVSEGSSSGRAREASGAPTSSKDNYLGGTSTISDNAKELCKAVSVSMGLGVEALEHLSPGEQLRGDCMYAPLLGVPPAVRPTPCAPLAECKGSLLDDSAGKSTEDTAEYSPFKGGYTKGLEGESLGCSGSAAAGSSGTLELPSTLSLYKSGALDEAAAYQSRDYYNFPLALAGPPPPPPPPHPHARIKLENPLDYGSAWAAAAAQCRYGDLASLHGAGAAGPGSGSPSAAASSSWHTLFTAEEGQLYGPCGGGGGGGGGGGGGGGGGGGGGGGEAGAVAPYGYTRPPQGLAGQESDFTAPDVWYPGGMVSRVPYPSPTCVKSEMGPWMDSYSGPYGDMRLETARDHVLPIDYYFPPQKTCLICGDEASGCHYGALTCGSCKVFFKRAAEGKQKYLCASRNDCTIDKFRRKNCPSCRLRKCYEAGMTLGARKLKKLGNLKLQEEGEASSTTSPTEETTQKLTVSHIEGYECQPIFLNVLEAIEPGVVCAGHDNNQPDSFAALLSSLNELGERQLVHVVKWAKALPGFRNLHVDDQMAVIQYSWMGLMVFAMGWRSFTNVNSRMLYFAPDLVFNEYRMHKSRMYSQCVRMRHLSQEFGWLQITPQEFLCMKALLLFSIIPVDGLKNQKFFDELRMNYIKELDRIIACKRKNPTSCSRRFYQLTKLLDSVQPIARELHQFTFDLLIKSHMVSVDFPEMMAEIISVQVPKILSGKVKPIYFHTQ

healthy human volunteers = test: Phase Ib Study of Healthy Volunteers; format: in vivo; settings: males

## CC(C)OC(=O)N[C@H]1Cc2c(n(Cc3ccccn3)c3ccc(C#N)cc23)C1 (single isomer, unassigned) [Example 1]
In vivo
  NOAEL: < 15 mg/kg/day
Sprague-Dawley rat; all dose levels (15, 150, 1500 mg/kg/day)
  morphologic findings in the testes: considered to be adverse
Sprague-Dawley rat; any dose group up to Day 182
  accumulation after multiple doses: not observed
Sprague-Dawley rat; females, end of treatment period
  higher body weight than concurrent controls: 22%
Sprague-Dawley rat; males, end of treatment period
  body weight change compared to control: −12%
Sprague-Dawley rat; 15 mg/kg/day
  Male group mean AUC0-24 hr near termination: 15902 ng·h/mL
Sprague-Dawley rat; 150 mg/kg/day
  Male group mean AUC0-24 hr near termination: 34132 ng·h/mL
  Prostate weight (mean % decrease): ↓ 30%
Sprague-Dawley rat; 1500 mg/kg/day
  Male group mean AUC0-24 hr near termination: 82690 ng·h/mL
  Prostate weight (mean % decrease): ↓ 34%
Orx rats; 1 mg/Kg/d
  LV-TA (cm2) ± SD: 0.3378 ± 7.08E−03 cm2
  LV-TBMC (mg) ± SD: 1.54 ± 0.0256 mg
  LV-TBMD (mg/cm3) ± SD: 507.4 ± 6.931 mg/cm3
Orx rats; 1 mg/Kg/d po
  SV Weight, % Sham: 5.6 % Sham
Orx rats; 3 mg/Kg/d
  LV-TA (cm2) ± SD: 0.362 ± 0.0138 ^ cm2
  LV-TBMC (mg) ± SD: 1.79 ± 0.095 mg
  LV-TBMD (mg/cm3) ± SD: 549 ± 15.965 mg/cm3
Orx rats; 3 mg/Kg/d po
  SV Weight, % Sham: 5.5 % Sham
Orx rats; 10 mg/Kg/d
  LV-TA (cm2) ± SD: 0.3521 ± 0.0125 ^ cm2
  LV-TBMC (mg) ± SD: 1.7757 ± 0.0607 mg
  LV-TBMD (mg/cm3) ± SD: 562.843 ± 16.104 mg/cm3
Orx rats; 10 mg/Kg/d po
  SV Weight, % Sham: 6.0 % Sham
Orx rats; 20 mg/Kg/d
  LV-TA (cm2) ± SD: 0.3563 ± 0.0102 ^ cm2
  LV-TBMD (mg/cm3) ± SD: 529.357 ± 10.052 mg/cm3
Orx rats; 20 mg/Kg/d po
  SV Weight, % Sham: 6.1 % Sham
Male rats; 1000 mg/kg group males
  mating, fertility, and copulation indices: lower
Male rats; Day 0
  increase of mean exposure (AUC0-24 hr) between 3 and 30 mg/kg: approximately 7.8 fold
Male rats; Day 70
  increase of mean exposure (AUC0-24 hr) between 3 and 30 mg/kg: ~4.5 fold
Male rats; all dosage levels
  Mean body weights, body weight gains, and food consumption: unaffected
Male rats; males dosed 3, 30, 1000 mg/kg
  Intrauterine survival of the embryos: unaffected
Human Androgen receptor
  biochemical binding affinity to the human Androgen receptor: only modestly reduced
Healthy human volunteers; 1 mg, day 14
  Change from Baseline for P1NP, Comparison to Placebo Difference: -2.40 µg/L
  Change from Baseline for Procollagen Type I N Propeptide (P1NP), LS Mean: -3.55 µg/L
Healthy human volunteers; 1 mg, day 28
  Change from Baseline for P1NP, Comparison to Placebo Difference: 1.49 µg/L
  Change from Baseline for Procollagen Type I N Propeptide (P1NP), LS Mean: 0.16 µg/L
Healthy human volunteers; 1 mg, day 35
  Change from Baseline for P1NP, Comparison to Placebo Difference: -2.26 µg/L
  Change from Baseline for Procollagen Type I N Propeptide (P1NP), LS Mean: -5.70 µg/L
Healthy human volunteers; 5 mg, day 14
  Change from Baseline for P1NP, Comparison to Placebo Difference: 3.27 µg/L
  Change from Baseline for Procollagen Type I N Propeptide (P1NP), LS Mean: 2.11 µg/L
Healthy human volunteers; 5 mg, day 28
  Change from Baseline for P1NP, Comparison to Placebo Difference: 4.20 µg/L
  Change from Baseline for Procollagen Type I N Propeptide (P1NP), LS Mean: 2.88 µg/L
Healthy human volunteers; 5 mg, day 35
  Change from Baseline for P1NP, Comparison to Placebo Difference: 1.13 µg/L
  Change from Baseline for Procollagen Type I N Propeptide (P1NP), LS Mean: -2.31 µg/L
Healthy human volunteers; 15 mg, day 14
  Change from Baseline for P1NP, Comparison to Placebo Difference: 2.49 µg/L
  Change from Baseline for Procollagen Type I N Propeptide (P1NP), LS Mean: 1.34 µg/L
Healthy human volunteers; 15 mg, day 28
  Change from Baseline for P1NP, Comparison to Placebo Difference: 3.41 µg/L
  Change from Baseline for Procollagen Type I N Propeptide (P1NP), LS Mean: 2.09 µg/L
Healthy human volunteers; 15 mg, day 35
  Change from Baseline for P1NP, Comparison to Placebo Difference: 0.03 µg/L
  Change from Baseline for Procollagen Type I N Propeptide (P1NP), LS Mean: -3.41 µg/L
Healthy human volunteers; 25 mg, day 14
  Change from Baseline for P1NP, Comparison to Placebo Difference: -0.92 µg/L
  Change from Baseline for Procollagen Type I N Propeptide (P1NP), LS Mean: -2.07 µg/L
Healthy human volunteers; 25 mg, day 28
  Change from Baseline for P1NP, Comparison to Placebo Difference: 2.75 µg/L
  Change from Baseline for Procollagen Type I N Propeptide (P1NP), LS Mean: 1.43 µg/L
Healthy human volunteers; 25 mg, day 35
  Change from Baseline for P1NP, Comparison to Placebo Difference: 0.47 µg/L
  Change from Baseline for Procollagen Type I N Propeptide (P1NP), LS Mean: -2.97 µg/L
Healthy human volunteers; 75 mg, day 14
  Change from Baseline for P1NP, Comparison to Placebo Difference: -3.81 µg/L
  Change from Baseline for Procollagen Type I N Propeptide (P1NP), LS Mean: -4.96 µg/L
Healthy human volunteers; 75 mg, day 28
  Change from Baseline for P1NP, Comparison to Placebo Difference: 2.81 µg/L
  Change from Baseline for Procollagen Type I N Propeptide (P1NP), LS Mean: 1.48 µg/L
Healthy human volunteers; 75 mg, day 35
  Change from Baseline for P1NP, Comparison to Placebo Difference: 2.35 µg/L
  Change from Baseline for Procollagen Type I N Propeptide (P1NP), LS Mean: -1.09 µg/L
